Results from ChEMBL document CHEMBL3112488, “Discovery of C-(1-aryl-cyclohexyl)-methylamines as selective, orally available inhibitors of dipeptidyl peptidase IV” (Bioorg Med Chem Lett, 2014).

Key:
[1] = target: Dipeptidyl peptidase 9 (Homo sapiens, UniProt Q86TI2); test: Inhibition of human recombinant DPP9
[2] = Permeability from apical to basolateral side in human Caco2 cells; type: ADME, cell-based; details: Caco-2, read-out: permeability
[3] = Oral bioavailability in rat at 3 mg/kg administered in 10% PEG300/90% PBS; type: ADME, organism-based; details: in vivo
[4] = species on record: Rattus norvegicus; test: animal or person; details: Sprague-Dawley, Plasma, po, 0.5 h, read-out: INH
[5] = species on record: Rattus norvegicus; test: animal or person; details: Sprague-Dawley, Plasma, po, 8 h, read-out: INH
[6] = target: Voltage-gated inwardly rectifying potassium channel KCNH2 (Homo sapiens, UniProt Q12809); test: Inhibition of human ERG by dofetilide binding assay
[7] = Half life in rat at 1 mg/kg, iv administered in 10% PEG300/90% PBS; type: ADME, organism-based; parameters: dose 1 mg/kg, route intravenous; details: in vivo
[8] = target: Dipeptidyl peptidase 8 (Homo sapiens, UniProt Q6V1X1); test: Inhibition of human recombinant DPP8
[9] = Clearance in rat at 1 mg/kg, iv administered in 10% PEG300/90% PBS; type: ADME, organism-based; parameters: dose 1 mg/kg, route intravenous; details: in vivo
[10] = Permeability from basolateral to apical side in human Caco2 cells; type: ADME, cell-based; details: Caco-2, read-out: permeability
[11] = Volume of distribution at steady state in rat at 1 mg/kg, iv administered in 10% PEG300/90% PBS; type: ADME, organism-based; parameters: dose 1 mg/kg, route intravenous; details: in vivo, read-out: Vdss
[12] = Tmax in rat at 3 mg/kg, po administered in 10% PEG300/90% PBS; type: ADME, organism-based; parameters: dose 3 mg/kg, route oral; details: in vivo
[13] = AUC (0 to 8 hrs) in rat at 3 mg/kg, po administered in 10% PEG300/90% PBS; type: ADME, organism-based; parameters: time < 8 hr, dose 3 mg/kg, route oral; details: plasma
[14] = target: Cytochrome P450 2D6 (Homo sapiens, UniProt P10635); test: Inhibition of CYP2D6 (unknown origin); type: ADME
[15] = Intrinsic clearance in rat liver microsomes; type: ADME
[16] = Cmax in rat at 3 mg/kg, po administered in 10% PEG300/90% PBS; type: ADME, organism-based; parameters: dose 3 mg/kg, route oral; details: in vivo
[17] = Cmax in rat at 3 mg/kg, po administered in PBS buffer at pH 6.8; type: ADME, organism-based; parameters: dose 3 mg/kg, route oral; details: in vivo
[18] = Volume of distribution at steady state in rat at 1 mg/kg, iv administered in PBS buffer at pH 6.8; type: ADME, organism-based; parameters: dose 1 mg/kg, route intravenous; details: in vivo, read-out: Vdss
[19] = Half life in rat at 1 mg/kg, iv administered in PBS buffer at pH 6.8; type: ADME, organism-based; parameters: dose 1 mg/kg, route intravenous; details: in vivo
[20] = Oral bioavailability in rat at 3 mg/kg administered in PBS buffer at pH 6.8; type: ADME, organism-based; details: in vivo
[21] = Clearance in rat at 1 mg/kg, iv administered in PBS buffer at pH 6.8; type: ADME, organism-based; parameters: dose 1 mg/kg, route intravenous; details: in vivo
[22] = Tmax in rat at 3 mg/kg, po administered in PBS buffer at pH 6.8; type: ADME, organism-based; parameters: dose 3 mg/kg, route oral; details: in vivo
[23] = AUC (0 to 8 hrs) in rat at 3 mg/kg, po administered in PBS buffer at pH 6.8; type: ADME, organism-based; parameters: time < 8 hr, dose 3 mg/kg, route oral; details: plasma
[24] = Oral bioavailability in rat at 3 mg/kg administered in sodium acetate buffer at pH 4.63; type: ADME, organism-based; details: in vivo
[25] = Tmax in rat at 3 mg/kg, po administered in sodium acetate buffer at pH 4.63; type: ADME, organism-based; parameters: dose 3 mg/kg, route oral; details: in vivo
[26] = Half life in rat at 1 mg/kg, iv administered in sodium acetate buffer at pH 4.63; type: ADME, organism-based; parameters: dose 1 mg/kg, route intravenous; details: in vivo
[27] = AUC (0 to 8 hrs) in rat at 3 mg/kg, po administered in sodium acetate buffer at pH 4.63; type: ADME, organism-based; parameters: time < 8 hr, dose 3 mg/kg, route oral; details: plasma
[28] = Cmax in rat at 3 mg/kg, po administered in sodium acetate buffer at pH 4.63; type: ADME, organism-based; parameters: dose 3 mg/kg, route oral; details: in vivo
[29] = Volume of distribution at steady state in rat at 1 mg/kg, iv administered in sodium acetate buffer at pH 4.63; type: ADME, organism-based; parameters: dose 1 mg/kg, route intravenous; details: in vivo, read-out: Vdss
[30] = Clearance in rat at 1 mg/kg, iv administered in sodium acetate buffer at pH 4.63; type: ADME, organism-based; parameters: dose 1 mg/kg, route intravenous; details: in vivo
[31] = species on record: Rattus norvegicus; test: animal or person; details: Sprague-Dawley, Plasma, po, read-out: INH

Chain of Cytochrome P450 2D6 (P10635 whole entry): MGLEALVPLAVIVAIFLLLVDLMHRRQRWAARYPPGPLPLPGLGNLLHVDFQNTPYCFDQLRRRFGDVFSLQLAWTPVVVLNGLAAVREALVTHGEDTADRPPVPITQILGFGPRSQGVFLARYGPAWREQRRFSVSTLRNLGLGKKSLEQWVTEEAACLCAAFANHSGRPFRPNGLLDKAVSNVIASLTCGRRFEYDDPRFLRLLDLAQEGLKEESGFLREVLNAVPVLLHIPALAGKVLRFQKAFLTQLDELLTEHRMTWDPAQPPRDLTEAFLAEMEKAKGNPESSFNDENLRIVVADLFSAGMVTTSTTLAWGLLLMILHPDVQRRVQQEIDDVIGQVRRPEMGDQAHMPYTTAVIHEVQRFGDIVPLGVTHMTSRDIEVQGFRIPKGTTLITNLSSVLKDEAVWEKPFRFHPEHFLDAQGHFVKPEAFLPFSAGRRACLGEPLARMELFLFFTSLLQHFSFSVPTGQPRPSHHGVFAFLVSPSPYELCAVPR
Chain of Voltage-gated inwardly rectifying potassium channel KCNH2 (Q12809 whole entry): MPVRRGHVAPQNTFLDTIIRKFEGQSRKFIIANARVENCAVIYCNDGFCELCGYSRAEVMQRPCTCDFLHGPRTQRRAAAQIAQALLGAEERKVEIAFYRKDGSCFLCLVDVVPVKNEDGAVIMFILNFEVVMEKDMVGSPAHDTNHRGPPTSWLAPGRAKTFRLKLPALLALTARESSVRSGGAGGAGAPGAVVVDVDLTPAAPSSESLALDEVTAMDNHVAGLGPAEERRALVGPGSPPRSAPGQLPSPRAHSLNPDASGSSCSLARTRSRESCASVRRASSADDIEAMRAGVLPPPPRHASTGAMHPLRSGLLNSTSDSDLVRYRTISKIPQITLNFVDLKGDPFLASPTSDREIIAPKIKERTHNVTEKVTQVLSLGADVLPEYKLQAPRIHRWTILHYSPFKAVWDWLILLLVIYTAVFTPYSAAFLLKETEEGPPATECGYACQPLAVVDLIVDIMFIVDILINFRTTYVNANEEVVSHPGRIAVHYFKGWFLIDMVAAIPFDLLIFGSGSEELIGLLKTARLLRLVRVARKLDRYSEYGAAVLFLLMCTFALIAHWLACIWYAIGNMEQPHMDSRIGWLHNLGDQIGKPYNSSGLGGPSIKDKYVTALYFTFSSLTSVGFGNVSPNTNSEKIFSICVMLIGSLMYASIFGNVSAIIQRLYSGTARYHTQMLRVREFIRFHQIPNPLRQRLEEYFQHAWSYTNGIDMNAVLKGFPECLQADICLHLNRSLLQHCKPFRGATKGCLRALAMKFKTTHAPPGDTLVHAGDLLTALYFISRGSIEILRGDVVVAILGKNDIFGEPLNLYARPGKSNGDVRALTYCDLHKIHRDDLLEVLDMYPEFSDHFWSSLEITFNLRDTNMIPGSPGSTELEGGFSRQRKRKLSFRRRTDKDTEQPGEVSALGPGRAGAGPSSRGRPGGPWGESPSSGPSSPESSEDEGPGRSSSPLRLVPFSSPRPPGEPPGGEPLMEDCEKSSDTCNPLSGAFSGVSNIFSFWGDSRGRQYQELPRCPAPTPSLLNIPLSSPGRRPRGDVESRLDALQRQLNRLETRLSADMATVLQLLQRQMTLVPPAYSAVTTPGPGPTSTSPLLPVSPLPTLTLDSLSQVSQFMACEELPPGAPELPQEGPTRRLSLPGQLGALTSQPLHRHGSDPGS
Chain of Dipeptidyl peptidase 9 (Q86TI2 whole entry): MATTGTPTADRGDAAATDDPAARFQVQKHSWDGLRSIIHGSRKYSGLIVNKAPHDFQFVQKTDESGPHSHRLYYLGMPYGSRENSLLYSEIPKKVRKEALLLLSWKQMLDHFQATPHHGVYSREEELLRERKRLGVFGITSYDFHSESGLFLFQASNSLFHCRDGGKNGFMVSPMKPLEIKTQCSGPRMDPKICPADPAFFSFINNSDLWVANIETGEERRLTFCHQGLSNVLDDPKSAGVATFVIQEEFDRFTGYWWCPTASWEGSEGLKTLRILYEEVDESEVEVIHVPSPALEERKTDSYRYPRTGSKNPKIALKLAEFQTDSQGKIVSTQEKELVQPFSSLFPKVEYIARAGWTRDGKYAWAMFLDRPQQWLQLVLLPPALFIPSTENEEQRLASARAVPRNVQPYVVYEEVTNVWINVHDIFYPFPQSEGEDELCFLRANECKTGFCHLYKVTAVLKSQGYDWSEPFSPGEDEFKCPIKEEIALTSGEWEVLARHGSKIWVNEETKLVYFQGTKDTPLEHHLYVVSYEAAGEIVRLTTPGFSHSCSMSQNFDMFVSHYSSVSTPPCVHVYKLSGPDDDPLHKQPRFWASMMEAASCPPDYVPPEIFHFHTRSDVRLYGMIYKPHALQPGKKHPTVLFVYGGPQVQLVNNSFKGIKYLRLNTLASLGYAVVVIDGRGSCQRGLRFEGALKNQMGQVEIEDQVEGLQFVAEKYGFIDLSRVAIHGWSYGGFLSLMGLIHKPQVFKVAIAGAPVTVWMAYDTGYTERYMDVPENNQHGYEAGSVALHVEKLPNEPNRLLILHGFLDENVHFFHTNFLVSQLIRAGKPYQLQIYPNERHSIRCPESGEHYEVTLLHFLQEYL
Chain of Dipeptidyl peptidase 8 (Q6V1X1 whole entry): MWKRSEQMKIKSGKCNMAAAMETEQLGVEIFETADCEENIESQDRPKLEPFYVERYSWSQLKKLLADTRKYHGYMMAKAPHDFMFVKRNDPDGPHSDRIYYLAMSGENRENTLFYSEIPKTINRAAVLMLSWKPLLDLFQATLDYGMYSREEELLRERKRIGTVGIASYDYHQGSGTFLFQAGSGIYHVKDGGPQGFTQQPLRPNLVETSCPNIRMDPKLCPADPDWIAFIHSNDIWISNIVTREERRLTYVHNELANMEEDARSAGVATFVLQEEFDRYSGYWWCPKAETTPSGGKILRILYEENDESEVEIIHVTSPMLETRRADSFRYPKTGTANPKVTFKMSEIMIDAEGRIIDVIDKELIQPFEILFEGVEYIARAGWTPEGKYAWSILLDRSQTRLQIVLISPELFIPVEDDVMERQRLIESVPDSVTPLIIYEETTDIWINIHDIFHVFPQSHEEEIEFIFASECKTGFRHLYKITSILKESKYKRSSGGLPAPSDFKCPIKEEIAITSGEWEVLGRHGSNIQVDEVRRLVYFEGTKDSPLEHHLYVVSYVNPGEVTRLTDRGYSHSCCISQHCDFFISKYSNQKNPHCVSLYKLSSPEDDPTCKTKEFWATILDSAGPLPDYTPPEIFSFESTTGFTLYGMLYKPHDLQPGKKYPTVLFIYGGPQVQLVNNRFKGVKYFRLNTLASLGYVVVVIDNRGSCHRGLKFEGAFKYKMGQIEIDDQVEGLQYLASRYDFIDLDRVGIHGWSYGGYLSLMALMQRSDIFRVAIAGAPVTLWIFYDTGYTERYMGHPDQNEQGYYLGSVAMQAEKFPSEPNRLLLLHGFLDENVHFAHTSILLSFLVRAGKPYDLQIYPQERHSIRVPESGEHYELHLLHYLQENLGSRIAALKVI

Cc1ccc(=O)n([C@H]2CC[C@](CN)(c3cccc(Cl)c3)CC2)n1
IC50 [1]: > 30 µM

NC[C@]1(c2cccc(Cl)c2)CC[C@H](n2nc(-c3cccnc3)ccc2=O)CC1
Papp A→B [2]: 8.6 ×10⁻⁶ cm/s | bioavailability [3]: 92% | inhibition in vivo at 3 mg/kg [4]: 91% | IC50 [1]: > 30 µM | inhibition in vivo at 3 mg/kg [5]: 80% | IC50 [6]: 4.4 µM | half-life [7]: 2.2 h | IC50 [8]: > 30 µM | clearance [9]: 29 mL/min/kg | Papp B→A [10]: 13 ×10⁻⁶ cm/s | Vd [11]: 3.9 L/kg | Tmax [12]: 1.8 h | AUC(0-t) at 8 h [13]: 4.01 µM·h | IC50 [14]: > 10 µM | CLint [15]: 51.1 µL/min/mg | Cmax [16]: 921 nM

NC[C@]1(c2cccc(Cl)c2)CC[C@H](N2CCn3c(nnc3C(F)(F)F)C2=O)CC1
Papp A→B [2]: 1.6 ×10⁻⁶ cm/s | Cmax [17]: 57.8 nM | Vd [18]: 11.7 L/kg | half-life [19]: 2.7 h | IC50 [6]: > 30 µM | bioavailability [20]: 17% | clearance [21]: 69 mL/min/kg | Tmax [22]: 3.3 h | AUC(0-t) at 8 h [23]: 0.214 µM·h | Papp B→A [10]: 4.8 ×10⁻⁶ cm/s | IC50 [14]: 4.5 µM | CLint [15]: 21.9 µL/min/mg

NC[C@]1(c2cccc(Cl)c2)CC[C@H](N2CCc3c(nc(C(F)(F)F)nc3C3CC3)C2=O)CC1
Papp A→B [2]: 4.4 ×10⁻⁶ cm/s | bioavailability [24]: 78% | IC50 [6]: 0.26 µM | Tmax [25]: 3.3 h | half-life [26]: 2.3 h | AUC(0-t) at 8 h [27]: 7.91 µM·h | Cmax [28]: 1900 nM | Vd [29]: 2.1 L/kg | Papp B→A [10]: 11 ×10⁻⁶ cm/s | clearance [30]: 9.5 mL/min/kg | IC50 [14]: 10 µM | CLint [15]: 43.4 µL/min/mg

NC[C@]1(c2cccc(Cl)c2)CC[C@H](N2CCn3c(nnc3C(F)(F)F)C2)CC1
IC50 [1]: 30 µM

NC[C@]1(c2cccc(Cl)c2)CC[C@H](N2CCc3c(nc(C(F)(F)F)nc3C3CC3)C2)CC1
IC50 [1]: > 30 µM | IC50 [8]: > 30 µM

N[C@@H](CC(=O)N1CCn2c(nnc2C(F)(F)F)C1)Cc1cc(F)c(F)cc1F [SITAGLIPTIN]
inhibition in vivo at 3 mg/kg [5]: 30% | inhibition in vivo at 3 mg/kg [31]: 82%
